Here are results for 8 compounds from patent publication US5221692A, “Ether linked and relatively nonpungent analogues of N-nonanoyl vanillylamide” (National Science Council, priority 1991, dated 1993).

The test system of data set [1] is right eye of male Wistar rats. In words: Wiping test (potency of pungency). It counts as in vivo. As for the experimental part:
The wiping test was performed as described by Szolcsanyl and Jansco-Gabor, Arzneim.-Forsch./Drug Res. 25, 1877 (1975). Briefly, solutions of CAP and its analogues were prepared as described above in successive tenfold dilutions. Each dilution was dropped into the right eye (vehicle being administered to the left eye as negative control) of male Wistar rats weighing 180-250 g, and the total number of protective movements (scratching, wiping of the eye with the foreleg) was counted for 30 min. Each concentration was applied to a total of 6 rats, and a dose-response curve were obtained form the mean value of each group. […] On the basis of the MPP values thus obtained, RPP (relative pain-producing potency) values were determined with respect to the pain-producing potency of CAP, which was taken as 1000.
^a) Methods are described by Szolcsanyi & JanscoGabor.

Data set [2] deals with acetic acid-induced writhing in mice. The data set is described as follows: Acetic acid-induced writhing (antinociceptive test). The data set is classed as in vivo, male mice (ddk strain). Conditions: for ED50: Mus musculus, ip, 0.5 h, read-out: ED50 (95% C.L.); for Potency ratio: indomethacin 1.00. As for the experimental part:
Evaluation of antinociceptive effects Following the method described by Koster et al., Fed. proc. 18, 412 (1959), antinociceptive tests were carried out in male mice after intraperitoneal administration of NVA and its analogues. Briefly, four groups of eight male mice (ddk strain) weighing 18-22 g were brought to the laboratory on the day prior to study, and housed overnight with free access to food and water. Solutions of NVA and its analogues, as well as indomethacin were made up to 10% ethanol, 10% […] 80% saline, and then diluted with saline to the required concentrations. The test solution was administered by intraperitoneal injection with single dose of 0.2 mL (vehicle administered as control). 20 min after injection, 0.2 mL of 0.7% acetic acid was injected intraperitoneally to induce writhing. Following injection, the mice were placed […] acid injection, a writhe being defined as a sequence of arching of the back, followed by pelvic rotation and hind limb extension.
^a) Writhes were counted for 30 min after injection of acetic acid
^b) ED50 and 95% confidence limits were calculated by the
Litchfield and Wilcoxon method.

For data set [3] the following is noted: oral; cited from earlier work.
Setting [4] is: intraperitoneal, mice, acetic acid 20 min after injection, writhes counted for 30 min, 95% confidence limits, Litchfield and Wilcoxon.
Where [5] appears, read: relative to capsaicin, taken as 1000.

Like-named read-outs stand apart in the source and are kept apart here.

`CCCCCCCCC(=O)NCc1ccc(OC(=O)CCC(=O)O)c(OC)c1` [Compound 3, N-(4-o-succinicacid-3-methoxybenzyl)-nonamide]: the “pungency (in words)” value in data set [1] (rat, in vivo) was “nearly equivalent to that of NVA and CAP”. Moreover, in data set [1] (rat, in vivo, 30 min), the “MPP (Moderate pain-producing potency)” value was 270 µg/mL and the “RPP (Relative pain-producing potency)” value was determined as 333. Moreover, the ED50 in data set [2] (setting [4]) is 0.06 mg/kg. Further, the Potency ratio in data set [2] (intraperitoneal, mice) was found to be 18.33.
Regarding `CCCCCCCCC(=O)NCc1ccc(OCC(O)CO)c(OC)c1` (stereo not shown) [Compound 4, N-(4-o-glycerol-3-methoxybenzyl)-nonamide], the ED50 in data set [2] (setting [4]) came out at 0.09 mg/kg. In addition, the Potency ratio in data set [2] (intraperitoneal, mice) is given as 12.22.
Regarding `CCCCCCCCC(=O)NCc1ccc(O)c(OC)c1` [NVA, N-nonanoyl vanillylamide], the “RPP (Relative pain-producing potency)” value in data set [1] (setting [5]) is 409. For the same compound, the 50% effective dose (ED50) in data set [2] came out at 0.08 mg/kg. Moreover, the Potency ratio in data set [2] (intraperitoneal, mice) turned out to be 13.75.
Regarding `CCCCCCCCC=CCCCCCCCC(=O)NCc1ccc(O)c(OC)c1` [olvanil, N-vanillyl-9-octadecenamide], in data set [3], the ED50 was 170 mg/kg.
For `COc1ccc2c(c1)c(CC(=O)O)c(C)n2C(=O)c1ccc(Cl)cc1` [Indomethacin, reference compound], in data set [2] (setting [4]), the ED50 was found to be 1.1 mg/kg.
As to `CCCCCCCCC(=O)NCc1ccc(OCC(=O)O)c(OC)c1` [Compound 5], the ED50 in data set [2] (setting [4]) was determined as 0.04 mg/kg. Also, in data set [2] (intraperitoneal, mice), the “antinociceptive effect (in words)” value is on record as “the most potent in its antinociceptive effect” and the Potency ratio was determined as 27.50.
As for `CCCCCCCCC(=O)NCc1ccc(OCCO)c(OC)c1` [Compound 6, N-(4-o-glycol-3-methoxybenzyl)-nonamide], the ED50 in data set [2] (setting [4]) was 0.14 mg/kg. In data set [2] (intraperitoneal, mice), the Potency ratio was 7.86.
Turning to `COc1cc(CNC(=O)CCCC/C=C/C(C)C)ccc1O` [Capsaicin, trans-8-methyl-N-vanillyl-6-nonenamide], the “MPP (Moderate pain-producing potency)” value in data set [1] (concentration inducing 32 scratchings, eye instillation, rats, 30 min) turned out to be 90 µg/mL. Also, the “median response (number of scratchings)” value in data set [1] (counted for 30 min, eye instillation, rats) is recorded as 32 scratchings. Further, the “RPP (Relative pain-producing potency)” value in data set [1] (setting [5]) is 1000. For the same compound, the ED50 in data set [2] (setting [4]) was determined as 0.07 mg/kg. In addition, the Potency ratio in data set [2] (intraperitoneal, mice) stood at 15.71.
